Structures are written as SMILES.

Among the data in patent US6406708B1, “Therapeutic compositions” (Interhealth AB, priority 1998, dated 2002) are anti-acne effect values, retold here.

For the assay the following is noted: 0.15% of sorbic acid in squalane/cyclodextrin composition.

Consider `C/C=C/C=C/C(=O)O` [sorbic acid], for which the anti-acne effect entry was “does not give any anti-acne effect”.
